Publication PMC9774897 (Antibiotics, 2022)
Values after ≈ are worked out from the molar mass of the structure shown. Read-outs that look alike come from different tables or passages of the source. Residues, ends and D or L forms follow the SMILES beside them.

Assays:
M. tuberculosis [1] = conditions: Kinetic killing assay; ref [22]; cited from earlier work
From the text: Table 6 The general characteristics and the previously reported MIC of each antimicrobial peptide used in this study. | column: MIC (µg/mL)

M. tuberculosis H37Rv [2] = test: Checkerboard assay (REMA read-out); type: cell-based, Mycobacterium tuberculosis; conditions: for MIC: Mycobacterium tuberculosis, H37RV, 168 h, checkerboard, agent alone; for MIC / MIC, Combined: REMA read-out, 7 days
M. tuberculosis H37Rv [3] = tested on: M. tuberculosis H37Rv; set-up: method as in PMID 32750539, PMID 29900893; conditions: previous reports; ref [30],[31]; cited from earlier work
M. tuberculosis [4] = conditions: cited from earlier work
M. tuberculosis H37Rv [5] = conditions: 3 h, 100 µg/mL

For `CC(C)C[C@H](NC(=O)[C@H](CC(C)C)NC(=O)[C@H](CCCCN)NC(=O)[C@H](CCCCN)NC(=O)[C@@H](NC(=O)[C@H](C)N)C(C)C)C(=O)N[C@@H](CCCNC(=N)N)C(=O)N[C@@H](Cc1c[nH]c2ccccc12)C(=O)N[C@@H](Cc1c[nH]c2ccccc12)C(=O)N[C@@H](CO)C(=O)N[C@@H](CCCNC(=N)N)C(=O)N[C@@H](Cc1c[nH]c2ccccc12)C(=O)N[C@@H](Cc1c[nH]c2ccccc12)C(=O)N[C@@H](CCCCN)C(=O)N[C@@H](CCCCN)C(=O)O` [AK 15-6] (H-AVKKLLRWWSRWWKK-OH; N-terminus and C-terminus assumed), the MIC (M. tuberculosis [1]) is listed as 37.5 µg/mL (≈ 18.1 µM).

With `NNC(=O)c1ccncc1` [INH, isoniazid] the MIC (M. tuberculosis H37Rv [2]) was 0.025 µg/mL, the FIC (M. tuberculosis H37Rv [2]; combination INH + D-hLF 1-11) was 0.48 and the “MIC, Combined” value (M. tuberculosis H37Rv [2]; combination INH + D-hLF 1-11) was 0.012 µg/mL. The MIC (M. tuberculosis H37Rv [3]) was 0.03 to 0.12 µg/mL.

In the case of `CC(C)C[C@H](NC(=O)[C@H](CCCNC(=N)N)NC(=O)CNC(=O)CNC(=O)[C@@H](N)CCCNC(=N)N)C(=O)N[C@H]1CSSC[C@@H](C(=O)N[C@H](C(=O)NCC(=O)N[C@@H](CCCNC(=N)N)C(N)=O)C(C)C)NC(=O)[C@H](C(C)C)NC(=O)[C@@H]2CSSC[C@H](NC(=O)[C@H](Cc3ccc(O)cc3)NC1=O)C(=O)N[C@@H](CCCNC(=N)N)C(=O)N[C@@H](CCCNC(=N)N)C(=O)N[C@@H](CCCNC(=N)N)C(=O)N[C@@H](Cc1ccccc1)C(=O)N2` [PG-1], the “percent of mycobacterial growth inhibition” value (M. tuberculosis [4]; 128 µg/mL, ref [3] Fattorini and colleagues) is listed as 96.7%, the MIC (M. tuberculosis [4]; Plate count assay, ref [3]) is listed as 128 µg/mL (≈ 59.4 µM) and the “percent of mycobacterial growth inhibition” value (M. tuberculosis H37Rv [5]) is listed as “approximately 94.22%”.

In the case of `CO[C@H]1/C=C/O[C@@]2(C)Oc3c(C)c(O)c4c(O)c(c(/C=N/N5CCN(C)CC5)c(O)c4c3C2=O)NC(=O)/C(C)=C\C=C\[C@H](C)[C@H](O)[C@@H](C)[C@@H](O)[C@@H](C)[C@H](OC(C)=O)[C@@H]1C` [RF, rifampicin], the MIC (M. tuberculosis H37Rv [2]) is listed as 0.5 µg/mL, the “MIC, Combined” value (M. tuberculosis H37Rv [2]; combination RF + D-hLF 1-11) is listed as 0.031 25 µg/mL and the MIC (M. tuberculosis H37Rv [3]) is listed as 0.12 to 0.5 µg/mL.
